{
  "source": "ChEMBL document CHEMBL5042522",
  "about": "“One- and Two-Photon Uncaging of Carbon Monoxide (CO) with Real-Time Monitoring: On-Demand Carbazole-Based Dual CO-Releasing Platform to Test over Single and Combinatorial Approaches for the Efficient Regression of Orthotopic Murine Melanoma In Vivo” (J Med Chem, 2022)",
  "key": {"[1]": {"experiment": "Stability of compound in PBS buffer at pH 7.4 at 100 uM incubated for 72 hrs under dark condition in presence of cysteine by Reverse-phase HPLC analysis", "assay_type": "physicochemical", "settings": "read-out: Stability"}, "[2]": {"experiment": "Photorelease ability in PBS buffer at pH 7.4 assessed as retention time of compound decomposition at 100 uM irradiated with >= 365 nm Hg lamp for 30 mins by RP-HPLC analysis", "assay_type": "physicochemical", "settings": "pH 7.4, 0.5 h"}, "[3]": {"experiment": "Photorelease ability in PBS buffer at pH 7.4 assessed as retention time of 4-(6-(2,2-dihydroxyacetyl)-9-ethyl-9H-carbazol-3-yl)-1,3-dioxol-2-one formation at 100 uM irradiated with >= 365 nm Hg lamp for 30 mins by RP-HPLC analysis", "assay_type": "physicochemical", "settings": "pH 7.4, 0.5 h"}, "[4]": {"experiment": "Photorelease ability in PBS buffer at pH 7.4 assessed as retention time of 1,1'-(9-ethyl-9H-carbazole-3,6-diyl)bis(2,2-dihydroxyethanone) formation at 100 uM irradiated with >= 365 nm Hg lamp for 30 mins by RP-HPLC analysis", "assay_type": "physicochemical", "settings": "pH 7.4, 0.5 h"}, "[5]": {"experiment": "Photorelease ability in PBS buffer at pH 7.4 assessed as compound decomposition at 100 uM irradiated with >= 365 nm Hg lamp upto 30 mins by UV absorption spectroscopy", "assay_type": "physicochemical", "settings": "read-out: Drug degradation"}, "[6]": {"experiment": "Photorelease ability in PBS buffer at pH 7.4 assessed as compound decomposition at 0.1 mM irradiated with pulsed laser at 730 nm for 30 mins by RP-HPLC analysis", "assay_type": "physicochemical", "settings": "read-out: Drug degradation"}, "[7]": {"experiment": "Photorelease activity in PBS buffer at pH 7.4 assessed as release of CO using 3',6'-Bis(allyloxy)-3H-spiro(isobenzofuran-1,9'-xanthen)-3-one fluorescent probe by measuring red shift absorption spectra at 500 uM irradiated with >= 365 nm Hg lamp in presence of PdCl2 by absorption spectroscopy", "assay_type": "physicochemical", "settings": "pH 7.4, 500 µM, TDE = time-dependent effect"}, "[8]": {"experiment": "Photorelease activity in PBS buffer at pH 7.4 assessed as release of CO using 3',6'-Bis(allyloxy)-3H-spiro(isobenzofuran-1,9'-xanthen)-3-one fluorescent probe by measuring increase in fluorescence intensity irradiated with >= 365 nm Hg lamp at 500 uM in presence of PdCl2 by fluorescence spectroscopy", "assay_type": "physicochemical", "settings": "pH 7.4, 500 µM, TDE = time-dependent effect"}, "[9]": {"experiment": "Photorelease activity in PBS buffer at pH 7.4 assessed as MbCO formation by measuring change in absorbance intensity at 500 uM irradiated with >= 365 nm Hg lamp for 30 mins in presence of deoxy-myoglobin by absorption spectroscopy", "assay_type": "physicochemical", "settings": "pH 7.4, 0.5 h"}, "[10]": {"experiment": "Photorelease activity in PBS buffer at pH 7.4 assessed as release of CO in absence of light irradiation by absorption spectroscopy", "assay_type": "physicochemical"}, "[11]": {"experiment": "Photorelease activity in PBS buffer at pH 7.4 assessed as 1,1'-(9-ethyl-9H-carbazole-3,6-diyl)bis(2,2-dihydroxyethanone) photoproduct formation by measuring lambda 485 nm green emission band excited at wavelength of 350 nm for 30 mins by fluorescence spectroscopy", "assay_type": "physicochemical", "settings": "pH 7.4, 0.5 h"}, "[12]": {"tested_on": "B16-F10", "experiment": "Cytotoxicity against mouse B16-F10 cells assessed as cell viability at 1.25 to 10 uM irradiated with >= 365 nm Hg lamp for 5 mins after 6 hrs post-treatment and further incubated for 72 hrs by MTT assay", "assay_type": "functional", "settings": "dose 1.25-10 µM, time 78 hrs"}, "[13]": {"tested_on": "HEK293", "experiment": "Induction of apoptosis in HEK293 cells assessed as late apoptotic cells at 5 uM incubated for 24 hrs by annexin-V-FITC and PI staining based flow cytometry analysis (reference value: 0 %)", "assay_type": "functional, Homo sapiens"}, "[14]": {"tested_on": "HEK293", "experiment": "Induction of apoptosis in HEK293 cells assessed as viable cells at 5 uM with light irradiation incubated for 24 hrs by annexin-V-FITC and PI staining based flow cytometry analysis (reference value: 99.9 %)", "assay_type": "functional", "settings": "Homo sapiens, HEK293, light or radiation study, read-out: Activity"}, "[15]": {"tested_on": "B16-F10", "experiment": "Induction of apoptosis in mouse B16-F10 cells assessed as viable cells at 5 uM incubated for 24 hrs by annexin-V-FITC and PI staining based flow cytometry analysis (reference value: 99.9 %)", "assay_type": "functional", "settings": "read-out: Activity"}, "[16]": {"tested_on": "B16-F10", "experiment": "Induction of apoptosis in mouse B16-F10 cells assessed as early apoptotic cells at 5 uM incubated for 24 hrs by annexin-V-FITC and PI staining based flow cytometry analysis (reference value: 0 %)", "assay_type": "functional"}, "[17]": {"tested_on": "B16-F10", "experiment": "Induction of apoptosis in mouse B16-F10 cells assessed as late apoptotic cells at 5 uM incubated for 24 hrs by annexin-V-FITC and PI staining based flow cytometry analysis (reference value: 0.1 %)", "assay_type": "functional"}, "[18]": {"tested_on": "B16-F10", "experiment": "Induction of apoptosis in mouse B16-F10 cells assessed as viable cells at 5 uM with light irradiation incubated for 24 hrs by annexin-V-FITC and PI staining based flow cytometry analysis (reference value: 99.9 %)", "assay_type": "functional", "settings": "B16-F10, light or radiation study, read-out: Activity"}, "[19]": {"tested_on": "B16-F10", "experiment": "Antitumor activity against mouse B16-F10 cells bearing C57BL/6J mouse assessed as tumor growth inhibition at 0.4 mg/kg, iv administered alternate days for 24 days followed by irradiation with pulsed laser at 730 nm for 10 mins after 24 hrs each post-injection by slide caliper method", "assay_type": "functional, organism-based", "settings": "time 25.0 day"}, "[20]": {"tested_on": "B16-F10", "experiment": "Antitumor activity against mouse B16-F10 cells bearing C57BL/6J mouse assessed as tumor regression at 0.4 mg/kg, iv administered alternate days for 24 days followed by irradiation with pulsed laser at 730 nm for 10 mins after 24 hrs each post-injection and measured on day 25 by slide caliper method", "assay_type": "functional, organism-based", "settings": "time 25.0 day"}, "[21]": {"experiment": "Toxicity in C57BL/6J mouse model harboring mouse B16-F10 cells assessed as change in body weight at 0.4 mg/kg, iv administered alternate days for 24 days followed by irradiation with pulsed laser at 730 nm for 10 mins after 24 hrs each post-injection", "assay_type": "organism-based", "settings": "in vivo, 600 h, 0.73 µM, time 25 day"}, "[22]": {"experiment": "Toxicity in C57BL/6J mouse model harboring mouse B16-F10 cells assessed as liver tissue necrosis at 0.4 mg/kg, iv administered alternate days for 24 days followed by irradiation with pulsed laser at 730 nm for 10 mins after 24 hrs each post-injection by hematoxylin and eosin staining based assay", "assay_type": "organism-based", "settings": "in vivo, 600 h, 0.73 µM, time 25 day"}, "[23]": {"experiment": "Toxicity in C57BL/6J mouse model harboring mouse B16-F10 cells assessed as heart tissue necrosis at 0.4 mg/kg, iv administered alternate days for 24 days followed by irradiation with pulsed laser at 730 nm for 10 mins after 24 hrs each post-injection by hematoxylin and eosin staining based assay", "assay_type": "organism-based", "settings": "in vivo, 600 h, 0.73 µM, time 25 day"}, "[24]": {"experiment": "Toxicity in C57BL/6J mouse model harboring mouse B16-F10 cells assessed as spleen tissue necrosis at 0.4 mg/kg, iv administered alternate days for 24 days followed by irradiation with pulsed laser at 730 nm for 10 mins after 24 hrs each post-injection by hematoxylin and eosin staining based assay", "assay_type": "organism-based", "settings": "in vivo, 600 h, 0.73 µM, time 25 day"}, "[25]": {"experiment": "Toxicity in C57BL/6J mouse model harboring mouse B16-F10 cells assessed as tumor tissue necrosis at 0.4 mg/kg, iv administered alternate days for 24 days followed by irradiation with pulsed laser at 730 nm for 10 mins after 24 hrs each post-injection by hematoxylin and eosin staining based assay", "assay_type": "organism-based", "settings": "in vivo, 600 h, 0.73 µM, time 25 day"}, "[26]": {"experiment": "Photolysis of compound in PBS buffer at pH 7.4 assessed as compound decomposition by measuring final photoproduct formation at 0.1 mM irradiated with >= 365 nm for 30 mins by RP-HPLC analysis", "assay_type": "physicochemical", "settings": "pH 7.4, 0.5 h, 100 µM"}},
  "note": "The source made the active and inactive calls. No cut-off for these calls is given here.",
  "data": [
    {"molecule": "CCn1c2ccc(-c3coc(=O)o3)cc2c2cc(-c3coc(=O)o3)ccc21", "values": [
      {"measurement": "remaining at 72 h, 100 µM", "setting": "[1]", "result": 92, "unit": "%"},
      {"measurement": "Retention_time", "setting": "[2]", "result": 6.21, "unit": "min"},
      {"measurement": "Retention_time", "setting": "[3]", "result": 8.05, "unit": "min"},
      {"measurement": "Retention_time", "setting": "[4]", "result": 8.82, "unit": "min"},
      {"measurement": "degraded at 0.5 h, 100 µM", "setting": "[5]", "result": 100, "unit": "%"},
      {"measurement": "degraded at 0.5 h, 100 µM", "setting": "[6]", "result": 37, "unit": "%"},
      {"measurement": "Drug metabolism", "setting": "[7]", "result": "Tde"},
      {"measurement": "Drug metabolism", "setting": "[8]", "result": "Tde"},
      {"measurement": "Drug metabolism", "setting": "[9]", "result": "Active"},
      {"measurement": "Drug metabolism", "setting": "[10]", "result": "Not Active"},
      {"measurement": "Drug metabolism", "setting": "[11]", "result": "Active"},
      {"measurement": "Activity", "setting": "[12]", "result": 20, "unit": "%"},
      {"measurement": "Activity", "setting": "[13]", "result": 0.2, "unit": "%"},
      {"measurement": "viability at 5 µM", "setting": "[14]", "result": 46.4, "unit": "%"},
      {"measurement": "viability at 5 µM", "setting": "[15]", "result": 99, "unit": "%"},
      {"measurement": "Activity", "setting": "[16]", "result": 1, "unit": "%"},
      {"measurement": "Activity", "setting": "[17]", "result": 0, "unit": "%"},
      {"measurement": "viability at 5 µM", "setting": "[18]", "result": 51.4, "unit": "%"},
      {"measurement": "Activity", "setting": "[19]", "result": "Active"},
      {"measurement": "Activity", "setting": "[20]", "result": "Active"},
      {"measurement": "Activity", "setting": "[21]", "result": "Non-Toxic"},
      {"measurement": "Activity", "setting": "[22]", "result": "Non-Toxic"},
      {"measurement": "Activity", "setting": "[23]", "result": "Non-Toxic"},
      {"measurement": "Activity", "setting": "[24]", "result": "Non-Toxic"},
      {"measurement": "Activity", "setting": "[25]", "result": "Toxic"},
      {"measurement": "Drug degradation", "setting": "[26]", "result": 89, "unit": "%"}
    ]}
  ]
}
